Ki data for six molecules are collected here from patent publication US10106557B2, “Preparation method for benzoxazoleoxazine ketone compound and intermediate and crystal form thereof” (NORTH CHINA PHARMACEUTICAL NEW DRUG R & D CO., LTD., priority 2014, dated 2018).

Broadly, the Ki is a dissociation constant, usually derived from enzyme kinetics or from competition with a known ligand.

Assay type in all cases: biochemical
In assay [1] the target is human thrombin (Homo sapiens (Human), UniProt P00734). In words: Human thrombin assay. The settings on record: substrate S-2238; Ki from IC50 by Cheng-Prusoff. How it is done:
(§1) The inhibitory ability of the compounds to be tested on Xa factor or other enzymes, such as thrombin or trypsin, in human or rats were determined by IC50 values, wherein the IC50 value was associated with the inhibition constant Ki. The purified enzyme was used in the chromogenic determination. The initial rate of hydrolysis of the chromogenic substrate was determined by the variation of absorbance at 405 nm in the linear part on time (usually 2 to 10 minutes after the addition of the substrate) at 37° C. by using FlexStation III (USA Molecular Instruments). By plotting a curve regarding the relative velocity of the hydrolysis (compared to the control group which was free of inhibition) on the logarithm of the concentration of the compounds and linear regression calculation, the concentration of the inhibitor leading to a 50% reduction of the rate of the hydrolysis of the substrate was determined. The enzyme inhibition constant (Ki) was calculated according to Cheng-Prusoff equation: Ki=IC50/(1+[S]/Km), where [S] was the substrate concentration and Km was the meter-Mann's constant determined by the double reciprocal mapping method. The IC50 values of the compounds were obtained by GraphPad Prism software. The curve is fitted by using the “shaped dose effect (variable slope)”.
The inhibitory activity on human thrombin was determined by using a buffer (10 mM HEPES buffer, pH 7.4, 2 mM CaCl2). Appropriate wells in the Greiner 384 microtiter plate were used to determine IC50. A buffer contained 50 μL human thrombin (Sigma; T8885), the final concentration of which was 0.05 NIH unit/mL. A buffer containing 2 μL 2% (V/V) DMSO (control group which was free of inhibition) or various concentration of the compound to be tested was diluted in the buffer containing 2% (V/V) DMSO. A buffer containing 48 μL substrate S-2238 (Chromogenix; Chemical formula: H-D-Phe-Pip-Arg-pNA.2HCl) was added, the final concentration was 30 μM. In this assay, the compound to be tested and the enzyme were pre-incubated for 10 minutes, the substrate was added to give a final volume of 100 μL to start the assay.

Assay [2] addresses human trypsin. The assay can be described thus: Human trypsin assay. The settings on record: substrate S-2222; Ki from IC50 by Cheng-Prusoff. Here is the method:
as §1
The inhibitory activity on human trypsin was determined by using buffer (50 mM Tris, pH 8.2, and 20 mM CaCl2). Appropriate wells in the Greiner 384 microtiter plate were used to determine IC50. A buffer containing 50 μL human trypsin (Sigma; T6424), the final concentration was 0.39 BAEE unit/mL, a buffer containing 2 μL 2% (V/V) DMSO (control group which was free of inhibition) or various concentration of the compound to be tested was diluted in the buffer containing 2% (V/V) DMSO. A buffer containing substrate S-2222 (Chromogenix), the final concentration was 30 μM. In this assay, the compound to be tested and the enzyme were pre-incubated for 10 minutes and then 48 μL substrate was added to give a final volume of 100 μL to start the assay.

The target in assay [3] is human coagulation factor Xa (Homo sapiens (Human), UniProt P00742). In words: Human coagulation factor Xa chromogenic assay. The settings on record: purified enzyme, substrate S-2222, 37° C.; Ki from IC50 by Cheng-Prusoff; read-out: hfXa Ki. Here is the method:
as §1
The inhibitory activity on coagulation factor Xa activity in human or rats was measured by using Tris-HCl buffer (50 mM, pH 8.3, 150 mM NaCl). […] The buffer containing 2 μL 2% (V/V) DMSO (control group which was free of inhibition) or various concentrations of the compounds to be tested were diluted in the buffer containing 2% (V/V) DMSO, and 48 μL buffer of the supporting base S-2222 (Chromogenix; chemical formula: Bz-IIe-Glu(γ-OR)-Gly-Arg-pNA.HCl R═H (50%), wherein R═CH3 (50%)) was added, the final concentration was 0.172 mM.

Assay [4] concerns the target rat coagulation factor Xa (Rattus norvegicus (Rat), UniProt Q63207). The assay can be described thus: Rat coagulation factor Xa chromogenic assay. The settings on record: purified enzyme, substrate S-2222, 37° C.; Ki from IC50 by Cheng-Prusoff; read-out: rfXa Ki. How it is done:
(§2) The inhibitory ability of the compounds to be tested on Xa factor or other enzymes, such as thrombin or trypsin, in human or rats were determined by IC50 values, wherein the IC50 value was associated with the inhibition constant Ki. The purified enzyme was used in the chromogenic determination. […] By plotting a curve regarding the relative velocity of the hydrolysis (compared to the control group which was free of inhibition) on the logarithm of the concentration of the compounds and linear regression calculation, the concentration of the inhibitor leading to a 50% reduction of the rate of the hydrolysis of the substrate was determined. The enzyme inhibition constant (Ki) was calculated according to Cheng-Prusoff equation: Ki=IC50/(1+[S]/Km), where [S] was the substrate concentration and Km was the meter-Mann's constant determined by the double reciprocal mapping method. The IC50 values of the compounds were obtained by GraphPad Prism software. The curve is fitted by using the “shaped dose effect (variable slope)”.
The inhibitory activity on coagulation factor Xa activity in human or rats was measured by using Tris-HCl buffer (50 mM, pH 8.3, 150 mM NaCl).

In assay [5] the target is prothrombinase (Homo sapiens (Human), UniProt P00742). The assay can be described thus: Prothrombin assay (prothrombinase, thrombin production). The settings on record: human factor Xa, human blood platelets, substrate S-2238. How it is done:
as §2
The activity of the compound to be tested against prothrombinase was determined by the production of thrombin. In summary, 12.5 μL human factor Xa was incubated in 10 mM HEPES buffer and pH 7.4, 2 mM CaCl2, the final concentration was 0.5 nM, and 12.5 μL human blood platelets (1×10^7 mL^−1) was added at 37° C. After 10 mins, 25 μL prothrombin was added to initiate the reaction, the final concentration was 0.5 μM, a buffer containing 2 μL 2% (V/V) DMSO (control group which was free of inhibition) or various concentration of the compound was diluted in the buffer containing 2% (V/V) DMSO.

Where only a bound is given, the exact number is not on record here.

Sequence of human coagulation factor Xa (P00742 235-488): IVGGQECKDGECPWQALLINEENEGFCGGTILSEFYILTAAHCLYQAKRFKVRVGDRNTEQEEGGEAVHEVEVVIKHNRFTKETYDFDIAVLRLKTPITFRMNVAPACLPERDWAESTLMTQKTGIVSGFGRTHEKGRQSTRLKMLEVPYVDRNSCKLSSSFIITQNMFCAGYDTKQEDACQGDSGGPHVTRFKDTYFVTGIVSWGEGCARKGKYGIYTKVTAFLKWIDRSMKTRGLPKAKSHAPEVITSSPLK
Sequence of human coagulation factor Xa (P00742 41-179): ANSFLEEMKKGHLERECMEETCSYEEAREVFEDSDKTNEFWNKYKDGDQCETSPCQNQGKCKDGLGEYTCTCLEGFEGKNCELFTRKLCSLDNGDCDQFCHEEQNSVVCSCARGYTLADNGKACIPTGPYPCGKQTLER
Sequence of prothrombinase (P00742 235-488): as the sequence (P00742 235-488) above
Sequence of prothrombinase (P00742 41-179): as the sequence (P00742 41-179) above
Sequence of prothrombinase (P12259 29-737 partner): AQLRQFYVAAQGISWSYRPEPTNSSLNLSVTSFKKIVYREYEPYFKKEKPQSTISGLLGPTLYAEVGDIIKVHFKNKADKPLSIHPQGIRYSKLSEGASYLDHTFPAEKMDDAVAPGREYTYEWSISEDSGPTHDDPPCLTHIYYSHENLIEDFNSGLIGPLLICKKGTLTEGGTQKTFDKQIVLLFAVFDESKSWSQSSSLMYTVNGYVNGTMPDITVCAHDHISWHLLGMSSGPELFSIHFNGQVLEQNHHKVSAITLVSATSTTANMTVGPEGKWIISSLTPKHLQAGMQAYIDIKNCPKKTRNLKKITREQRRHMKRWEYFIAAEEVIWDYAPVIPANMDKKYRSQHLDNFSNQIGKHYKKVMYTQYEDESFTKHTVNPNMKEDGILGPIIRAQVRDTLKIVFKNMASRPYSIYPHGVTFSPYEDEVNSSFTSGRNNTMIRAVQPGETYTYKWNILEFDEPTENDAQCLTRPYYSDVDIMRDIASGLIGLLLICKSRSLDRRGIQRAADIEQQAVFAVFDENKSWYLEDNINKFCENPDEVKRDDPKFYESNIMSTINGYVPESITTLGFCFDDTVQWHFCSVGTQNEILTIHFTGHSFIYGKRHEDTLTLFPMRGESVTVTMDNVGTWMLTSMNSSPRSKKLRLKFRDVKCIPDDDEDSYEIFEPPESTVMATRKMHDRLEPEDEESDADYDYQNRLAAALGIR
Sequence of prothrombinase (P12259 1574-2224 partner): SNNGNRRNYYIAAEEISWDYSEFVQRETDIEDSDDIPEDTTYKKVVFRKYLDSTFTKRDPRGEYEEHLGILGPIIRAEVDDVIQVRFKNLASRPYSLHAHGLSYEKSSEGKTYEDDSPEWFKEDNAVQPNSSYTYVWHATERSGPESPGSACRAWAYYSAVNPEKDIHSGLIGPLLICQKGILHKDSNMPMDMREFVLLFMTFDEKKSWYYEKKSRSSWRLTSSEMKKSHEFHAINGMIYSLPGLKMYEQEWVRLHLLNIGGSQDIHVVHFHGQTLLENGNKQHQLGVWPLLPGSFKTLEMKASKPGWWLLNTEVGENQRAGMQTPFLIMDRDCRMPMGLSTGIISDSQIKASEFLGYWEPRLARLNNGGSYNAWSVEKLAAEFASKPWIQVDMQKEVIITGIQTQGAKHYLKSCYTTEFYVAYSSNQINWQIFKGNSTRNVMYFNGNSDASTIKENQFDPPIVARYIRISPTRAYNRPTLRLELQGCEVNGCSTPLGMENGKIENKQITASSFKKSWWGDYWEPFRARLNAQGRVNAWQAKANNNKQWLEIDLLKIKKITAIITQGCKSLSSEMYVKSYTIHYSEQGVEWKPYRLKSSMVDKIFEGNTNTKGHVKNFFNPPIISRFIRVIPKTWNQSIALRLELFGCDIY
Sequence of rat coagulation factor Xa (Q63207 232-482): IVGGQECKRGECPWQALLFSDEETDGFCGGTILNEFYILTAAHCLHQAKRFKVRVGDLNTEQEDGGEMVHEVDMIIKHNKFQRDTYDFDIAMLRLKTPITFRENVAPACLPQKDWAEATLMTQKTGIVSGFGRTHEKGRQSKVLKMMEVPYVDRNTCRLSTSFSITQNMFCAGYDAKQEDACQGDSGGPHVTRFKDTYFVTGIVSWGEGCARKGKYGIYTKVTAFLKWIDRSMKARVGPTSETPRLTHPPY
Sequence of rat coagulation factor Xa (Q63207 41-180): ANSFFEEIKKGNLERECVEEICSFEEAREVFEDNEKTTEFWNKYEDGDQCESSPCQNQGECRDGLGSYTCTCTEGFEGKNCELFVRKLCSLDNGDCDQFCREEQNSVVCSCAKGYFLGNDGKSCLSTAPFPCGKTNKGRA

Consider `O=C(NC[C@@H]1OC(=O)N2c3ccc(N4CCOCC4=O)cc3OC[C@@H]12)c1ccc(Cl)s1` [Compound 1, 5-chloro-N-(((3S,3aS)-1-one-7-(3-ketomorpholine)-1,3,3a,4-tetrahydrobenzo[b]oxazolo[3,4-d][1,4]oxazin-3-yl)methyl)thiophene-2-carboxamide], for which the Ki in assay [1] is above 1000 nM; in assay [2], above 20000 nM; in assay [3], 1.01 nM; in assay [4], 2.87 nM; in assay [5] it was 0.47 nM.

Take `COC[C@H]1CCCN1c1ccc2c(c1)OC[C@H]1[C@H](CNC(=O)c3ccc(Cl)s3)OC(=O)N21` [Compound 30]: the Ki in assay [1] is above 1000 nM; in assay [2], above 20000 nM; in assay [3], 9.71 nM; in assay [4], 21.5 nM; in assay [5], 16.2 nM.

With `O=C(NC[C@@H]1OC(=O)N2c3ccc(N4CCCNC4=O)cc3OC[C@@H]12)c1ccc(Cl)s1` [Compound 7], the inhibitory constant (Ki) in assay [1] is above 1000 nM; in assay [2], above 20000 nM; in assay [3], 4.13 nM; in assay [4], 16.5 nM; in assay [5], 4.41 nM.

On to `O=C(NC[C@@H]1OC(=O)N2c3ccc(N4CCCCC4=O)cc3OC[C@@H]12)c1ccc(Cl)s1` [Compound 2], for which the Ki in assay [1] is above 1000 nM; in assay [2], above 20000 nM; in assay [4], 4.45 nM.

On to `O=C(NC[C@@H]1OC(=O)N2c3ccc(-n4cncn4)cc3OC[C@@H]12)c1ccc(Cl)s1` [Compound 34], for which the Ki in assay [3] is 106 nM.

Consider `O=C(NC[C@@H]1OC(=O)N2c3ccc(-n4ccccc4=O)cc3OC[C@@H]12)c1ccc(Cl)s1` [Compound 8], for which the Ki in assay [1] was above 1000 nM; in assay [2] it was above 20000 nM; in assay [3] it was 1.92 nM; in assay [4] it was 3.17 nM; in assay [5], 0.9 nM.
